Reference: patent US20250290915A1, “METHOD FOR PREDICTING RESPONSIVENESS TO THERAPY” (CANCERTAIN LIMITED, priority 2022, published 2025)

What was measured:
Type in all cases: cell-based, human
[1] = tested on: Circulating Tumour Cells (CTCs) from a patient with sex cord stromal tumour, ovarian tumour; test: Drug response score assay on CTCs from blood, Example 4; design: key to Drug response score, conc. 1 / Drug response score, conc. 2 / Drug response score, conc. 3 / Drug response score, conc. 4: normalized drug response metric (Gupta et al. 2020); settings: for Drug response score, conc. 1: conc. 1: Cyclo 2.5 μg/ml, Vinc 10 ng/ml, Etop 1 μg/ml, Bini 100 ng/ml, Doxo 10 ng/ml; for Drug response score, conc. 1 / Drug response score, conc. 2 / Drug response score, conc. 3 / Drug response score, conc. 4: CTCs, t96h; for Drug response score, conc. 2: conc. 2: Cyclo 10 μg/ml, Vinc 20 ng/ml, Etop 4 μg/ml, Bini 200 ng/ml, Doxo 30 ng/ml; for Drug response score, conc. 3: conc. 3: Cyclo 40 μg/ml, Vinc 40 ng/ml, Etop 20 μg/ml, Bini 400 ng/ml, Doxo 90 ng/ml; for Drug response score, conc. 4: conc. 4: Cyclo 160 μg/ml, Vinc 80 ng/ml, Etop 100 μg/ml, Bini 800 ng/ml, Doxo 270 ng/ml; for effectiveness on Circulating Tumour Cells (CTCs) under laboratory conditions / Drug sensitivity as calculated by the assay (interpretation of Drug Response Scores): sex cord stromal / ovarian tumour CTCs; for Drug sensitivity as calculated by the assay (interpretation of Drug Response Scores): Table 14
Experimental: (§1) CD45^+ cells and circulating tumour cells (CTCs) were isolated from a blood sample provided by each subject.
(§2) CD45 separation was performed by adding human CD45 microbeads (50 μl/ml blood), incubating for 15 minutes at 4° C. and then processing using an AutoMACS machine. This separates the blood sample into CD45^+ and CD45^−cells in 2 separate falcons. The falcon tubes are then centrifuged at 1200 rpm for 5 minutes.
(§3) The supernatant was removed from the CD45^−falcon tube, and the CD45^−cells contacted with 100 μl of FcR block and 100 μl of CD326 (EpCAM) MicroBeads, followed by incubation at […] 4° C. for 30 minutes. The CD45^−cells were then processed using an AutoMACS machine to separate the EpCAM positive and negative cells into 2 separate falcon tubes. The EpCAM-cells were discarded. The supernatant was removed from the EpCAM^+ cells, and the cells resuspended in DMEM with 2 μl Cell Tox, 2 μl MT and 2 μl MT. 20 μl of the resuspended pellet was then added to all sample wells excluding a blank. After all wells are added to, a cell count was conducted on the […] to determine the number of circulating tumour cells (CTCs).
(§4) The different cell types were each divided equally into populations, depending on the number of drugs/concentrations to be tested and plated on a cell-culture plate pre-coated with a scaffold of polycaprolactone (PCL) electrospun fibres and incubated at 37° C., 5% CO2, for 5 to (typically 10) minutes to facilitate cell attachment. After attachment, an initial imaging step was carried out using the RealTime-Glo™ MT assay from Promega (Catalogue No. G9711)) and the CellTox™ Green Cytotoxicity Assay (Promega, Catalogue No. G8741), carried out according to manufacturer's instructions. Following this initial imagining, the immunotherapeutic and/or chemotherapeutic agents were added to the cell populations as indicated below. After 10 minutes, the imagining step was repeated. The cell populations were then incubated at 37° C., 5% CO2 for 48 hours. The imaging step was then repeated. The cell populations were then re-dosed with the same immunotherapeutic and/or chemotherapeutic agents as indicated below, and incubated at 37° C., 5% CO2 for a further 48 hours. After this second 48 hour incubation, the imagining step was repeated for a final time.
(§5) At the end of this culture period, dose response scores were calculated using a normalized drug response metric as described in Gupta et al. (Communications Biology volume 3, Article number: 42 (2020), https://doi.org/10.1038/s42003-020-0765-z). The start readout for a given immunotherapeutic or chemotherapeutic agent at a given concentration was the to readout for said immunotherapeutic or chemotherapeutic agent at a specified concentration. The end readout for a given immunotherapeutic or chemotherapeutic agent at a given concentration was the final timepoint reading (t96h) for said immunotherapeutic or chemotherapeutic agent at a specified concentration.
(§6) The positive control start readout for a given drug/concentration was the to readout for the corresponding drug at a specified concentration. The positive control end readout for the corresponding drug at a specified concentration was the final timepoint reading (t96h) for the corresponding blank well.
(§7) The negative control start and end readouts for a given immunotherapeutic or chemotherapeutic agent at a given concentration were the to and final timepoint reading (t96h) respectively for blank cell or blank immuno cell well respectively.
(§8) The sensitivity or resistance of a subject's cancer to a given immunotherapeutic or chemotherapeutic agent was determined based on the calculated drug response score as shown in Table 2.
Blood samples from a patient with sex cord stromal tumour, ovarian tumour (epitheliod neoplasm, stage 3 recurrence after surgery (resection) and previous chemotherapy) were received on 19 Jul. 2021 and tested using a 5 drug panel. […]

[2] = tested on: Circulating Tumour Cells (CTCs) from a patient with colon cancer (sigmoid colon cancer); test: Drug response score assay on CTCs from blood, Example 8; design: key to Drug response score, conc. 1 / Drug response score, conc. 2 / Drug response score, conc. 3 / Drug response score, conc. 4: normalized drug response metric (Gupta et al. 2020); settings: for Drug response score, conc. 1: conc. 1 of each drug as in Table 24; for Drug response score, conc. 1 / Drug response score, conc. 2 / Drug response score, conc. 3 / Drug response score, conc. 4: CTCs, t96h; for Drug response score, conc. 2: conc. 2 of each drug as in Table 24; for Drug response score, conc. 3: conc. 3 of each drug as in Table 24; for Drug response score, conc. 4: conc. 4 of each drug as in Table 24; for Drug sensitivity as calculated by the assay (interpretation of Drug Response Scores): Table 26
Experimental: as §1, §2, §3
as §4, with “After” for “The different cell types were each divided equally into populations, depending on the number of drugs/concentrations to be tested and plated on a cell-culture plate pre-coated with a scaffold of polycaprolactone (PCL) electrospun fibres and incubated at 37° C., 5% CO2, for 5 to (typically 10) minutes to facilitate cell attachment. After”
as §5, §6, §7, §8
Blood samples from a patient with colon cancer (sigmoid colon cancer) were received on 8 Mar. 2022 and tested using a 9 drug panel.
Chemotherapeutic agents were tested as in Table 24.

[3] = tested on: Circulating Tumour Cells (CTCs) from a patient with renal cancer; test: Drug response score assay on CTCs (with CD45+ cells for immunotherapy) from blood, Example 7; design: key to Drug response score, conc. 1 / Drug response score, conc. 2 / Drug response score, conc. 3 / Drug response score, conc. 4: normalized drug response metric per Gupta et al. 2020; settings: for Drug response score, conc. 1: conc. 1: Pembr 20 μg/ml (CTCs + CD45+ cells), Docetax 0.02 μg/ml, Gemcit 2 μg/ml, Topo 5 μg/ml, Etop 1 μg/ml, Eribul 5 μg/ml (CTCs); for Drug response score, conc. 1 / Drug response score, conc. 2 / Drug response score, conc. 3 / Drug response score, conc. 4: t96h; for Drug response score, conc. 2: conc. 2: Pembr 40 μg/ml (CTCs + CD45+ cells), Docetax 0.2 μg/ml, Gemcit 10 μg/ml, Topo 10 μg/ml, Etop 4 μg/ml, Eribul 10 μg/ml (CTCs); for Drug response score, conc. 3: conc. 3: Pembr 100 μg/ml (CTCs + CD45+ cells), Docetax 2 μg/ml, Gemcit 20 μg/ml, Topo 50 μg/ml, Etop 20 μg/ml, Eribul 20 μg/ml (CTCs); for Drug response score, conc. 4: conc. 4: Pembr 160 μg/ml (CTCs + CD45+ cells), Docetax 10 μg/ml, Gemcit 40 μg/ml, Topo 100 μg/ml, Etop 100 μg/ml, Eribul 40 μg/ml (CTCs); for Drug sensitivity as calculated by the assay (interpretation of Drug Response Scores): Table 23
Experimental: as §1, §2
The supernatant was removed from the CD45^+falcon tube, and the cells resuspended in DMEM with 2 μl Cell Tox, 2 μl MT and 2 μl MT. 20 μl of the resuspended CD45^+ cells was then plated in each well which will contain an immunotherapy treatment.
as §3, §4, §5, §6, §7
The sensitivity or resistance of a subject's cancer to a given immunotherapeutic or chemotherapeutic agent was determined based on the calculated drug response score as shown in Table 2. […]

[4] = tested on: Circulating Tumour Cells (CTCs, EpCam+CD45−) from a patient with stage II synovial sarcoma; test: Drug response score assay (RealTime-Glo MT / CellTox Green, PCL scaffold) on CTCs from blood, Example 1; design: key to Drug response score, conc. 1 / Drug response score, conc. 2 / Drug response score, conc. 3 / Drug response score, conc. 4: normalized drug response metric per Gupta et al. 2020; settings: for Drug response score, conc. 1: conc. 1: Doxo 10 ng/ml, Ifos 0.125 μg/ml, Gemcit 2 μg/ml, Doce 0.02 μg/ml, Carbo 2 μg/ml, Dacarb 1.5 μg/ml, re-dosed at 48 h; for Drug response score, conc. 1 / Drug response score, conc. 2 / Drug response score, conc. 3 / Drug response score, conc. 4: CTCs, t96h; for Drug response score, conc. 2: conc. 2: Doxo 30 ng/ml, Ifos 0.25 μg/ml, Gemcit 10 μg/ml, Doce 0.2 μg/ml, Carbo 5 μg/ml, Dacarb 3 μg/ml; for Drug response score, conc. 3: conc. 3: Doxo 90 ng/ml, Ifos 5 μg/ml, Gemcit 20 μg/ml, Doce 2 μg/ml, Carbo 10 μg/ml, Dacarb 6 μg/ml; for Drug response score, conc. 4: conc. 4: Doxo 270 ng/ml, Ifos 10 μg/ml, Gemcit 40 μg/ml, Doce 10 μg/ml, Carbo 20 μg/ml, Dacarb 12 μg/ml
Experimental: as §1, §2, §3, §4, §5, §6, §7, §8
Blood samples from a patient with stage II synovial sarcoma (suspected spindle cell tumour) were received and tested using a 6 drug panel.
Chemotherapeutic agents were tested as in Table 3.

| Structure (SMILES) | Drug response score, conc. 1 [1] | Drug response score, conc. 2 [1] | Drug response score, conc. 3 [1] | Drug response score, conc. 4 [1] | effectiveness on Circulating Tumour Cells (CTCs) under laboratory conditions [1] | Drug sensitivity as calculated by the assay (interpretation of Drug Response Scores) [1] | Drug response score, conc. 1 [2] | Drug response score, conc. 2 [2] | Drug response score, conc. 3 [2] | Drug response score, conc. 4 [2] | Drug sensitivity as calculated by the assay (interpretation of Drug Response Scores) ([2]; sigmoid colon cancer CTCs) | further results |
| --- | --- | --- | --- | --- | --- | --- | --- | --- | --- | --- | --- | --- |
| Cn1cnc2c(F)c(Nc3ccc(Br)cc3F)c(C(=O)NOCCO)cc21 [Binimetinib] | 0.93 | 1.18 | 1.19 | 1.06 | not effective | Resistant |  |  |  |  |  |  |
| C=C1C[C@@H]2CC[C@@]34C[C@H]5O[C@H]6[C@@H](O3)[C@H]3O[C@H](CC[C@@H]3O[C@H]6[C@H]5O4)CC(=O)C[C@@H]3[C@@H](OC)[C@@H](C[C@H](O)CN)O[C@H]3C[C@H]3O[C@@H](CC[C@@H]1O2)C[C@@H](C)C3=C [Eribuline] |  |  |  |  |  |  | 4.4627 | −0.1620 | −0.0329 | −0.4785 | Sensitive (S++) | Drug response score, conc. 1 [3]: 0.4482; Drug response score, conc. 2 [3]: 0.0692; Drug response score, conc. 3 [3]: −0.1453; Drug response score, conc. 4 [3]: −0.0193; Drug sensitivity as calculated by the assay (interpretation of Drug Response Scores) ([3]; renal cancer CTCs): Sensitive (S+) |
| O=P1(N(CCCl)CCCl)NCCCO1 (stereo not drawn) [Cyclophosphamide] | 0.97 | 0.58 | 0.41 | 0.94 | show effectiveness | Sensitive (S++) | −0.3176 | 0.9581 | 0.6810 | 2.5058 | Sensitive (S+) | effectiveness on Circulating Tumour Cells under laboratory conditions ([2]; sigmoid colon cancer CTCs): S+ |
| CC[C@]1(O)C[C@H]2CN(CCc3c([nH]c4ccccc34)[C@@](C(=O)OC)(c3cc4c(cc3OC)N(C=O)[C@H]3[C@@](O)(C(=O)OC)[C@H](OC(C)=O)[C@]5(CC)C=CCN6CC[C@]43[C@@H]65)C2)C1 [Vincristine] | 3.35 | 1.24 | 1.83 | 1.29 | not effective | Resistant |  |  |  |  |  |  |
| CN(C)/N=N/c1[nH]cnc1C(N)=O [Dacarbazine] |  |  |  |  |  |  |  |  |  |  |  | Drug response score, conc. 1 [4]: 2.1563; Drug response score, conc. 2 [4]: 0.0887; Drug response score, conc. 3 [4]: 0.1691; Drug response score, conc. 4 [4]: 0.5700 |
| CC[C@@]1(O)C(=O)OCc2c1cc1n(c2=O)Cc2cc3c(CN(C)C)c(O)ccc3nc2-1 [Topotecan] |  |  |  |  |  |  |  |  |  |  |  | Drug response score, conc. 1 [3]: 0.1847; Drug response score, conc. 2 [3]: −0.0648; Drug response score, conc. 3 [3]: −0.0964; Drug response score, conc. 4 [3]: −0.1707; effectiveness on Circulating Tumour Cells under laboratory conditions ([3]; renal cancer CTCs): Sensitive S++; Drug sensitivity as calculated by the assay (interpretation of Drug Response Scores) ([3]; renal cancer CTCs): Sensitive (S++) |
| N.N.O=C([O-])C1(C(=O)[O-])CCC1.[Pt+2] [Carboplatin] |  |  |  |  |  |  | 6.6672 | −0.0506 | −0.8131 | −0.1322 | Sensitive (S++) | Drug response score, conc. 1 [4]: 1.4015; Drug response score, conc. 2 [4]: 0.6497; Drug response score, conc. 3 [4]: 0.4151; Drug response score, conc. 4 [4]: 0.4317; Drug sensitivity as calculated by the assay (interpretation of Drug Response Scores) ([4]; synovial sarcoma CTCs, Table 5): Sensitive (S+) |
